Data taken from the supplement of paper PMC4862054.
Several values for one entry are separate records, joined by “and”; a condition that tells them apart may be missing. Equal values may be shown once.

test system: BT-474; assay: normalised viability (% of control), CellTiter-Blue; higher = more viable cells (about 100 = DMSO control); settings: 9.9 nM; incubation time: 72 h
Method: (§1)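 DSRT, CellTiter-Blue viability, 72 h incubation. Signal is normalised to DMSO and benzethonium chloride controls. Value is the normalised response at dose 3.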

SMILES | normalised viability
CCN(CC)CCCC(C)Nc1c2ccc(Cl)cc2nc2ccc(OC)cc12 (stereo not given) [Mepacrine] | 113%

same assay, conditions: 10 nM; incubation time: 72 h

SMILES | normalised viability
O=C(/C=C/c1cccnc1)NCCCCC1CCN(C(=O)c2ccccc2)CC1 [FK-866] | 91.6%
CC[C@@H]1C(=O)N(C)c2cnc(Nc3ccc(C(=O)NC4CCN(C)CC4)cc3OC)nc2N1C1CCCC1 [BI 2536] | 44.4%

same assay, conditions: 100 nM; incubation time: 72 h

SMILES | normalised viability
Nc1nc(F)nc2c1ncn2[C@@H]1O[C@H](CO)[C@@H](O)[C@@H]1O [Fludarabine] | 107%
Nc1ncn([C@H]2C[C@H](O)[C@@H](CO)O2)c(=O)n1 [Decitabine] | 87.1% and 95.7%
O=C(O)C1(C(=O)O)CCC1.[NH2-].[NH2-].[Pt+2] [Carboplatin] | 116%
N#Cc1ccc(C(c2ccc(C#N)cc2)n2cncn2)cc1 [Letrozole] | 102%
C1CN1c1nc(N2CC2)nc(N2CC2)n1 [Triethylenemelamine] | 113%
CCCS(=O)(=O)Nc1ccc(F)c(C(=O)c2c[nH]c3ncc(-c4ccc(Cl)cc4)cc23)c1F [Vemurafenib] | 111%
O=C(O)C(=O)O.[NH-][C@@H]1CCCC[C@H]1[NH-].[Pt+2] [Oxaliplatin] | 127%
CCN(CC)CCCC(C)Nc1c2ccc(Cl)cc2nc2ccc(OC)cc12 (stereo not given) [Mepacrine] | 109%
Cc1ccc(-c2cc(C(F)(F)F)nn2-c2ccc(S(N)(=O)=O)cc2)cc1 [Celecoxib] | 110%
NCCCNCCSP(=O)(O)O [Amifostine] | 95.8%

test system: BT-549; assay: as above; settings: 9.9 nM; incubation time: 72 h
Method: as §1

SMILES | normalised viability
CCN(CC)CCCC(C)Nc1c2ccc(Cl)cc2nc2ccc(OC)cc12 (stereo not given) [Mepacrine] | 86.1%

same assay, conditions: 10 nM; incubation time: 72 h

SMILES | normalised viability
O=C(/C=C/c1cccnc1)NCCCCC1CCN(C(=O)c2ccccc2)CC1 [FK-866] | 38.6%
CC[C@@H]1C(=O)N(C)c2cnc(Nc3ccc(C(=O)NC4CCN(C)CC4)cc3OC)nc2N1C1CCCC1 [BI 2536] | 36.9%

same assay, conditions: 100 nM; incubation time: 72 h

SMILES | normalised viability
Nc1nc(F)nc2c1ncn2[C@@H]1O[C@H](CO)[C@@H](O)[C@@H]1O [Fludarabine] | 107%
Nc1ncn([C@H]2C[C@H](O)[C@@H](CO)O2)c(=O)n1 [Decitabine] | 102% and 98.4%
O=C(O)C1(C(=O)O)CCC1.[NH2-].[NH2-].[Pt+2] [Carboplatin] | 101%
N#Cc1ccc(C(c2ccc(C#N)cc2)n2cncn2)cc1 [Letrozole] | 97%
C1CN1c1nc(N2CC2)nc(N2CC2)n1 [Triethylenemelamine] | 95.7%
CCCS(=O)(=O)Nc1ccc(F)c(C(=O)c2c[nH]c3ncc(-c4ccc(Cl)cc4)cc23)c1F [Vemurafenib] | 98.2%
O=C(O)C(=O)O.[NH-][C@@H]1CCCC[C@H]1[NH-].[Pt+2] [Oxaliplatin] | 89.1%
CCN(CC)CCCC(C)Nc1c2ccc(Cl)cc2nc2ccc(OC)cc12 (stereo not given) [Mepacrine] | 90.3%
Cc1ccc(-c2cc(C(F)(F)F)nn2-c2ccc(S(N)(=O)=O)cc2)cc1 [Celecoxib] | 108%
NCCCNCCSP(=O)(O)O [Amifostine] | 103%

test system: CAL-120; assay: as above; settings: 9.9 nM; incubation time: 72 h
Method: as §1

SMILES | normalised viability
CCN(CC)CCCC(C)Nc1c2ccc(Cl)cc2nc2ccc(OC)cc12 (stereo not given) [Mepacrine] | 117%

same assay, conditions: 10 nM; incubation time: 72 h

SMILES | normalised viability
O=C(/C=C/c1cccnc1)NCCCCC1CCN(C(=O)c2ccccc2)CC1 [FK-866] | 55%
CC[C@@H]1C(=O)N(C)c2cnc(Nc3ccc(C(=O)NC4CCN(C)CC4)cc3OC)nc2N1C1CCCC1 [BI 2536] | 34.1%

same assay, conditions: 100 nM; incubation time: 72 h

SMILES | normalised viability
Nc1nc(F)nc2c1ncn2[C@@H]1O[C@H](CO)[C@@H](O)[C@@H]1O [Fludarabine] | 82.2%
Nc1ncn([C@H]2C[C@H](O)[C@@H](CO)O2)c(=O)n1 [Decitabine] | 85.2% and 84.4%
O=C(O)C1(C(=O)O)CCC1.[NH2-].[NH2-].[Pt+2] [Carboplatin] | 88%
N#Cc1ccc(C(c2ccc(C#N)cc2)n2cncn2)cc1 [Letrozole] | 76.4%
C1CN1c1nc(N2CC2)nc(N2CC2)n1 [Triethylenemelamine] | 109%
CCCS(=O)(=O)Nc1ccc(F)c(C(=O)c2c[nH]c3ncc(-c4ccc(Cl)cc4)cc23)c1F [Vemurafenib] | 92.7%
O=C(O)C(=O)O.[NH-][C@@H]1CCCC[C@H]1[NH-].[Pt+2] [Oxaliplatin] | 91%
CCN(CC)CCCC(C)Nc1c2ccc(Cl)cc2nc2ccc(OC)cc12 (stereo not given) [Mepacrine] | 104%
Cc1ccc(-c2cc(C(F)(F)F)nn2-c2ccc(S(N)(=O)=O)cc2)cc1 [Celecoxib] | 91.1%
NCCCNCCSP(=O)(O)O [Amifostine] | 90.4%

test system: CAL-148; assay: as above; settings: 0.99 nM; incubation time: 72 h
Method: as §1

SMILES | normalised viability
CCN(CC)CCCC(C)Nc1c2ccc(Cl)cc2nc2ccc(OC)cc12 (stereo not given) [Mepacrine] | 116%

same assay, conditions: 1 nM; incubation time: 72 h

SMILES | normalised viability
O=C(/C=C/c1cccnc1)NCCCCC1CCN(C(=O)c2ccccc2)CC1 [FK-866] | 91.5%
CC[C@@H]1C(=O)N(C)c2cnc(Nc3ccc(C(=O)NC4CCN(C)CC4)cc3OC)nc2N1C1CCCC1 [BI 2536] | 105%

same assay, conditions: 10 nM; incubation time: 72 h

SMILES | normalised viability
Nc1nc(F)nc2c1ncn2[C@@H]1O[C@H](CO)[C@@H](O)[C@@H]1O [Fludarabine] | 90.9%
Nc1ncn([C@H]2C[C@H](O)[C@@H](CO)O2)c(=O)n1 [Decitabine] | 87.3% and 90%
O=C(O)C1(C(=O)O)CCC1.[NH2-].[NH2-].[Pt+2] [Carboplatin] | 92.4%
N#Cc1ccc(C(c2ccc(C#N)cc2)n2cncn2)cc1 [Letrozole] | 87.8%
C1CN1c1nc(N2CC2)nc(N2CC2)n1 [Triethylenemelamine] | 103%
CCCS(=O)(=O)Nc1ccc(F)c(C(=O)c2c[nH]c3ncc(-c4ccc(Cl)cc4)cc23)c1F [Vemurafenib] | 98.1%
O=C(O)C(=O)O.[NH-][C@@H]1CCCC[C@H]1[NH-].[Pt+2] [Oxaliplatin] | 127%
CCN(CC)CCCC(C)Nc1c2ccc(Cl)cc2nc2ccc(OC)cc12 (stereo not given) [Mepacrine] | 107%
Cc1ccc(-c2cc(C(F)(F)F)nn2-c2ccc(S(N)(=O)=O)cc2)cc1 [Celecoxib] | 97.2%
NCCCNCCSP(=O)(O)O [Amifostine] | 93.5%

test system: CAL-51; assay: as above; settings: 0.99 nM; incubation time: 72 h
Method: as §1

SMILES | normalised viability
CCN(CC)CCCC(C)Nc1c2ccc(Cl)cc2nc2ccc(OC)cc12 (stereo not given) [Mepacrine] | 95.9%

same assay, conditions: 1 nM; incubation time: 72 h

SMILES | normalised viability
O=C(/C=C/c1cccnc1)NCCCCC1CCN(C(=O)c2ccccc2)CC1 [FK-866] | 102%
CC[C@@H]1C(=O)N(C)c2cnc(Nc3ccc(C(=O)NC4CCN(C)CC4)cc3OC)nc2N1C1CCCC1 [BI 2536] | 89.4%

same assay, conditions: 10 nM; incubation time: 72 h

SMILES | normalised viability
Nc1nc(F)nc2c1ncn2[C@@H]1O[C@H](CO)[C@@H](O)[C@@H]1O [Fludarabine] | 101%
Nc1ncn([C@H]2C[C@H](O)[C@@H](CO)O2)c(=O)n1 [Decitabine] | 112% and 102%
O=C(O)C1(C(=O)O)CCC1.[NH2-].[NH2-].[Pt+2] [Carboplatin] | 100%
N#Cc1ccc(C(c2ccc(C#N)cc2)n2cncn2)cc1 [Letrozole] | 110%
C1CN1c1nc(N2CC2)nc(N2CC2)n1 [Triethylenemelamine] | 100%
CCCS(=O)(=O)Nc1ccc(F)c(C(=O)c2c[nH]c3ncc(-c4ccc(Cl)cc4)cc23)c1F [Vemurafenib] | 97.1%
O=C(O)C(=O)O.[NH-][C@@H]1CCCC[C@H]1[NH-].[Pt+2] [Oxaliplatin] | 103%
CCN(CC)CCCC(C)Nc1c2ccc(Cl)cc2nc2ccc(OC)cc12 (stereo not given) [Mepacrine] | 99.6%
Cc1ccc(-c2cc(C(F)(F)F)nn2-c2ccc(S(N)(=O)=O)cc2)cc1 [Celecoxib] | 100%
NCCCNCCSP(=O)(O)O [Amifostine] | 105%

test system: CAL-85-1; assay: as above; settings: 0.99 nM; incubation time: 72 h
Method: as §1

SMILES | normalised viability
CCN(CC)CCCC(C)Nc1c2ccc(Cl)cc2nc2ccc(OC)cc12 (stereo not given) [Mepacrine] | 99%

same assay, conditions: 1 nM; incubation time: 72 h

SMILES | normalised viability
O=C(/C=C/c1cccnc1)NCCCCC1CCN(C(=O)c2ccccc2)CC1 [FK-866] | 103%
CC[C@@H]1C(=O)N(C)c2cnc(Nc3ccc(C(=O)NC4CCN(C)CC4)cc3OC)nc2N1C1CCCC1 [BI 2536] | 90%

same assay, conditions: 10 nM; incubation time: 72 h

SMILES | normalised viability
Nc1nc(F)nc2c1ncn2[C@@H]1O[C@H](CO)[C@@H](O)[C@@H]1O [Fludarabine] | 101%
Nc1ncn([C@H]2C[C@H](O)[C@@H](CO)O2)c(=O)n1 [Decitabine] | 96% and 100%
O=C(O)C1(C(=O)O)CCC1.[NH2-].[NH2-].[Pt+2] [Carboplatin] | 87.3%
N#Cc1ccc(C(c2ccc(C#N)cc2)n2cncn2)cc1 [Letrozole] | 90.3%
C1CN1c1nc(N2CC2)nc(N2CC2)n1 [Triethylenemelamine] | 101%
CCCS(=O)(=O)Nc1ccc(F)c(C(=O)c2c[nH]c3ncc(-c4ccc(Cl)cc4)cc23)c1F [Vemurafenib] | 98.6%
O=C(O)C(=O)O.[NH-][C@@H]1CCCC[C@H]1[NH-].[Pt+2] [Oxaliplatin] | 92%
CCN(CC)CCCC(C)Nc1c2ccc(Cl)cc2nc2ccc(OC)cc12 (stereo not given) [Mepacrine] | 92.6%
Cc1ccc(-c2cc(C(F)(F)F)nn2-c2ccc(S(N)(=O)=O)cc2)cc1 [Celecoxib] | 76.9%
NCCCNCCSP(=O)(O)O [Amifostine] | 90.7%

test system: DU-4475; assay: as above; settings: 0.99 nM; incubation time: 72 h
Method: as §1

SMILES | normalised viability
CCN(CC)CCCC(C)Nc1c2ccc(Cl)cc2nc2ccc(OC)cc12 (stereo not given) [Mepacrine] | 83.1%

same assay, conditions: 1 nM; incubation time: 72 h

SMILES | normalised viability
O=C(/C=C/c1cccnc1)NCCCCC1CCN(C(=O)c2ccccc2)CC1 [FK-866] | 84.9%
CC[C@@H]1C(=O)N(C)c2cnc(Nc3ccc(C(=O)NC4CCN(C)CC4)cc3OC)nc2N1C1CCCC1 [BI 2536] | 91.7%

same assay, conditions: 10 nM; incubation time: 72 h

SMILES | normalised viability
Nc1nc(F)nc2c1ncn2[C@@H]1O[C@H](CO)[C@@H](O)[C@@H]1O [Fludarabine] | 115%
Nc1ncn([C@H]2C[C@H](O)[C@@H](CO)O2)c(=O)n1 [Decitabine] | 98.1% and 117%
O=C(O)C1(C(=O)O)CCC1.[NH2-].[NH2-].[Pt+2] [Carboplatin] | 98.9%
N#Cc1ccc(C(c2ccc(C#N)cc2)n2cncn2)cc1 [Letrozole] | 99.8%
C1CN1c1nc(N2CC2)nc(N2CC2)n1 [Triethylenemelamine] | 102%
CCCS(=O)(=O)Nc1ccc(F)c(C(=O)c2c[nH]c3ncc(-c4ccc(Cl)cc4)cc23)c1F [Vemurafenib] | 107%
O=C(O)C(=O)O.[NH-][C@@H]1CCCC[C@H]1[NH-].[Pt+2] [Oxaliplatin] | 95.9%
CCN(CC)CCCC(C)Nc1c2ccc(Cl)cc2nc2ccc(OC)cc12 (stereo not given) [Mepacrine] | 96.4%
Cc1ccc(-c2cc(C(F)(F)F)nn2-c2ccc(S(N)(=O)=O)cc2)cc1 [Celecoxib] | 96.9%
